# From PubChem BioAssay (NCI)
# Values joined by “and” are separate entries in the source; they are usually repeats but may differ in a detail not shown here. Equal entries are not always repeated.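 Each compound was tested at five concentrations against cells in 96-well plates for 48 hours. GI50 = concentration required for 50% inhibition of growth. Definition used: TGI = concentration required for complete inhibition of growth.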
# Columns and labels:
# Assay in all cases: inhibition of tumour cell growth, NCI panel, 48 h
# U251 CNS = test system: U251 CNS
# LOX IMVI melanoma = test system: LOX IMVI melanoma
# HCT-116 colon = test system: HCT-116 colon
# NCI-H23 lung = test system: NCI-H23 lung
# OVCAR-5 ovarian = test system: OVCAR-5 ovarian
# HOP-92 NSCLC = test system: HOP-92 NSCLC
# MOLT-4 leukemia = test system: MOLT-4 leukemia
# HL-60(TB) leukemia = test system: HL-60(TB) leukemia
# DU-145 prostate = test system: DU-145 prostate
# MDA-MB-231 breast = test system: MDA-MB-231 breast
Compound,TGI (U251 CNS) [µM],TGI (LOX IMVI melanoma) [µM],TGI (HCT-116 colon) [µM],TGI (NCI-H23 lung) [µM],TGI (OVCAR-5 ovarian) [µM],TGI (HOP-92 NSCLC),TGI (MOLT-4 leukemia) [µM],TGI (HL-60(TB) leukemia),TGI (DU-145 prostate) [µM],TGI (MDA-MB-231 breast) [µM],GI50 (U251 CNS) [µM],GI50 (HL-60(TB) leukemia) [µM],GI50 (LOX IMVI melanoma) [µM],GI50 (HCT-116 colon) [µM],GI50 (OVCAR-5 ovarian) [µM],GI50 (DU-145 prostate) [µM],GI50 (HOP-92 NSCLC) [µM],GI50 (MOLT-4 leukemia) [µM],GI50 (NCI-H23 lung) [µM],GI50 (MDA-MB-231 breast) [µM]
CCCC(=O)[O-].N.N.N.N.N.[Co+3].[O-][Cl+3]([O-])([O-])[O-],> 100,> 100,> 100,> 100,> 100,> 100 µM,> 100,–,–,–,–,–,–,–,–,–,–,–,–,–
COC1OC2=CCC3C(=O)NC(=O)C3C2[C@H](OCc2ccccc2)C1OCc1ccccc1 (some centres undefined),33.3,3.22,3.21,4.7,29.1,4.15 µM,–,–,–,–,–,–,–,–,–,–,–,–,–,–
O=C(N/N=C/c1cc(Br)cc(Br)c1[O-])c1ccccc1O.O=C(N/N=C/c1cc(Br)cc(Br)c1[O-])c1ccccc1O.[Ni+2],1.84,1.84,1.55,2.65,1.34,2.02 µM,15.6,0.346 µM,–,–,–,–,–,–,–,–,–,–,–,–
CCOC(=O)N1CCC(=C2c3ccc(Cl)cc3CCc3cccnc32)CC1,–,74.6,32.4,35.6,37.9,24.2 µM,33.3,22.9 µM,26.9,42.5,–,–,–,–,–,–,–,–,–,–
CN(C)/N=N/c1nc[nH]c1C(N)=O,> 1000,> 1000,> 1000,–,> 1000,87.1 µM and 796 µM,–,85 µM and > 745 µM,> 1000,> 1000,71.5,4.16,29.8,45.4,> 788,51.2,74,17.8,–,–
O=c1ccc2nc(-c3ccccn3)nn(-c3ccccc3)c-2c1,14.2,3.44,3.42,4.84,18.1,2.42 µM,–,3.11 µM,11.1,3.68,3.7,0.64,1.78,1.77,4.99,3.77,1.15,–,2.19,1.92
O=C(O)C(=O)/C=C(\O)c1ccc(Br)cc1,> 100,> 100,> 100,> 100,> 100,> 100 µM,> 100,> 100 µM,> 100,> 100,–,–,–,–,–,–,–,–,–,–
COc1ccc2nc3cc(Cl)ccc3c(NCCNc3c4ccc(Cl)cc4nc4ccc(OC)cc34)c2c1,3.28,–,–,–,–,3.51 µM,–,–,3.08,–,1.77,–,–,–,–,1.68,2.01,–,–,–
O=c1ccc2ccc(O)cc2o1,> 100,> 100,> 100,> 100,> 100,> 100 µM,> 100,> 100 µM,> 100,> 100,–,–,–,–,–,–,–,–,–,–
NCCCNCCCCN1CC1,> 26.2,11.8,> 100,> 28,> 33.8,4.91 µM,–,–,6.17,–,–,–,–,–,–,–,–,–,–,–
C=C1C(=O)OC2CC3(C)OC3CC/C(C)=C/C(OC(C)=O)C12 (centres undefined),33.5,12.8,14.6,27.6,23,4.69 µM,13.9,3.4 µM,28.4,24.8,–,–,–,–,–,–,–,–,–,–
COc1ccc(Sc2ccccc2N)cc1,49.8,> 100,> 100,> 100,> 100,74.4 µM,> 100,60.9 µM,–,–,–,–,–,–,–,–,–,–,–,–
Cc1ccc(CCC(=O)C(=O)O)s1,> 100,–,> 100,> 100,> 100,> 100 µM,> 100,> 100 µM,–,–,–,–,–,–,–,–,–,–,–,–
Cc1nc2ccccc2c(/C=C/c2ccc(Cl)cc2)c1C(=O)/C=C/c1ccccc1,3.07,3.03,–,–,3.39,–,4.88,4.58 µM,–,4.37,1.61,2.01,1.64,–,1.83,–,–,0.884,–,1.87
COC(=O)C(NC(=O)c1ccccc1)C(c1ccc(Cl)cc1)P(=O)(OC)OC (centres undefined),> 100,> 100,> 100,> 100,> 100,> 100 µM,> 100,> 100 µM,–,–,–,–,–,–,–,–,–,–,–,–
CCOc1ccc2c(c1)c(=O)c1c(NCCN(CC)CC)ccc3nnn2c31,> 58.2,32,> 44.9,38.6,> 54.8,> 100 µM,> 59.9,–,54.4,58.5,–,–,–,–,–,–,–,–,–,–
CCCCNC(=O)/N=C/c1c(O)c2ccccc2oc1=O,–,> 100,> 100,> 100,> 100,> 100 µM,> 100,57.4 µM,–,–,–,–,–,–,–,–,–,–,–,–
COc1ccc(N2NC(c3ccccc3)(c3ccccc3)C(C)C2=O)cc1 (centres undefined),> 100,> 100,> 100,> 100,> 100,> 100 µM,> 100,> 100 µM,> 100,> 100,–,–,–,–,–,–,–,–,–,–
CC(C)(C)CC(C)(C)c1ccc(O)c(C[N+](C)(C)[O-])c1,> 100,> 100,> 100,> 100,> 100,> 100 µM,> 100,99.6 µM,> 100,> 100,–,–,–,–,–,–,–,–,–,–
Cc1ccc(NC(=O)CSC(N)=O)cc1C,> 100,> 100,> 100,> 100,> 100,> 100 µM,> 100,> 100 µM,> 100,> 100,–,–,–,–,–,–,–,–,–,–
COc1ccc(C[C@H](N)C(=O)N2C[C@@H](CO)C[C@@H](n3ccc(=O)[nH]c3=O)C2)cc1,> 100,> 100,> 100,> 100,> 100,> 100 µM,> 100,> 100 µM,–,–,–,–,–,–,–,–,–,–,–,–
COc1ccc(-c2nn(-c3ccc(NC(=O)Nc4ccc(Cl)c(C(F)(F)F)c4)cc3)cc2-c2ccncc2)cc1Cl,2.59,–,2.69,8.17,5.96,3.84 µM,6.75,5.75 µM,20.6,2.67,0.928,2.13,–,1.1,1.88,3.07,1.14,1.7,1.77,1.2
